Results taken from publication PMC11747586, “Synthesis and Investigation of Peptide–Drug Conjugates Comprising Camptothecin and a Human Protein‐Derived Cell‐Penetrating Peptide” (Chemical Biology & Drug Design, 2025).
Several values for one entry are separate records, joined by “and”; a condition that tells them apart may be missing. Equal values may be shown once. Residues, ends and D or L forms follow the SMILES beside them. *: point of attachment. S(CH2)2OCO2(CPT-20-yl) = CC[C@@]1(OC(=O)OCCS*)C(=O)OCc2c1cc1n(c2=O)Cc2cc3ccccc3nc2-1

Experiments:
human RBCs = test: Red blood cell (RBC) lysis, released hemoglobin; conditions: 72 h
Description: (§1) Cell death was measured using resazurin, with 0.1% (v/v) Triton X‐100 as a control for 100% cell death. Data points are expressed as mean ± SD for at least two biological replicates. Dose response curves were fitted using [inhibitor] versus response with variable slope, Graphpad Prism v10. […] RBC lysis was determined by measuring released hemoglobin, with 0.1% (v/v) Triton X‐100 as a control for 100% cell lysis. Melittin was included as a membranolytic control. Data points are expressed as mean ± SD for two technical replicates. Dose response curves were fitted using [inhibitor] versus response with variable slope, Graphpad Prism v10. […] CC50 values are expressed as mean (SEM). […]
(§2) Red blood cell (RBC) lysis
Human RBCs and serum were obtained from healthy volunteers via the Red Cross Lifeblood,
Brisbane, Australia. RBCs were washed three times with PBS and stored in culture medium (RPMI

[1] = Cytotoxicity (resazurin) against cultured HaCaT noncancerous cells; conditions: human
Description: as §1
(§3) HaCaT cells were grown in DMEM medium and HT144 cells were grown in RPMI medium supplemented with 2 mM L-glutamine and 10 mM sodium pyruvate. Media were supplemented with 10% (v/v) fetal bovine serum, 100 units/mL of penicillin and […] of streptomycin. Flasks of cultured cells were maintained in a humidified incubator (37 °C, 5% CO2) and passaged every 2–3 days to maintain cultures between 20–90% confluence. Cell line identity was verified by comparing […]
(§4) STR profiles of the cell lines against database entries from the DSMZ-German collection of microorganisms and cell cultures, GmBH https://celldive.dsmz.de/str/browse.
Toxicity to the HT144 and HaCaT cell lines was tested following peptide treatment by measuring the metabolism of resazurin into fluorescent resorufin. The assays were performed with 5000 cells/well (96-well plate) in serum free media. Cells were incubated with serially diluted peptides, PDCs or drugs for 72 h or 24 h (37 °C, 5% CO2). PBS and 0.1% (v/v) Triton X-100 were included as controls for 0% and 100% toxicity. Resazurin was added at 0.02% (w/v) final concentration 2 h prior to the assay end point. Fluorescence (λex = 560 nm, λem = 585 nm) was measured using a Tecan infinite M1000Pro multiplate reader. Percentage cytotoxicity was calculated relative to 0% and 100% controls.
Dose-response curves were fitted and CC50 values were determined using [inhibitor] vs response with four parameters with the top constrained to 100% (GraphPad Prism version 10.0.2). Data was collected as three biological replicates, with experiments conducted on different days.
as §2
Human RBCs and serum were obtained from healthy volunteers via the Red Cross Lifeblood, Brisbane, Australia. RBCs were washed three times with PBS and stored in culture medium (RPMI

HT144 (melanoma) cells = test: cells
Description: Cell death was measured using resazurin, with 0.1% (v/v) Triton X‐100 as a control for 100% cell death. Data points are expressed as mean ± SD for at least two biological replicates. Dose response curves were fitted using [inhibitor] versus response with variable slope, Graphpad Prism v10. […] RBC lysis was determined by measuring released hemoglobin, with 0.1% (v/v) Triton X‐100 as a control for 100% cell lysis. Melittin was included as a membranolytic control. Data points are expressed as mean ± SD for two technical replicates. Dose response curves were fitted using [inhibitor] versus response with variable slope, Graphpad Prism v10. […] CC50 values are expressed as mean (SEM).
Cell death was measured using resazurin, with 0.1% (v/v) Triton X-100 as a control for 100% cell death. Data points are expressed as mean ± SD for at least two biological replicates. CC50 values are expressed as mean (SEM). Note: CPT-dipeptide-PDIP was not included in this study. c[A]PDIP is a desulfurized variant of cPDIP 2 (see Table S1) to prevent the presence of free thiol during assays. […]
as §3, §4
Toxicity to the HT144 and HaCaT cell lines was tested following peptide treatment by measuring the metabolism of resazurin into fluorescent resorufin. The assays were performed with 5000 cells/well (96-well plate) in serum free media. Cells were incubated with serially diluted peptides, PDCs or […]

[2] = Parallel artificial membrane permeability assay (PAMPA); format: in vitro ADME; conditions: 4 h; for % recovered (soluble fractions) / Papp at 4 h, 4 μM: 4 μM; for % recovered (soluble fractions): combined apical and basolateral fractions; for Papp at 4 h, 4 μM: PAMPA, apical to basolateral, read-out: apparent permeability (Papp); for degradation during PAMPA experiment: cell-free, PBS, 37 °C
Description: FIGURE 4 (A) Membrane permeability and cellular uptake of PDCs, scaffold peptides, and CPT. Compounds were added to PAMPA wells (4 μM) and incubated for 4 h. Supernatant from apical and basolateral sides of the membrane were collected and analyzed using LC–MS. The amount in the combined soluble fractions was compared to the starting amount to determine % recovery, and the apparent permeability (Papp) was calculated as before (Sevin et al. [2013]). Data is expressed as mean ± SD from a single experiment with three technical replicates. (B) Internalization/cell membrane association of PDCs 12–14 and PDIP with HT144 cells. Cells were treated with PDIP or PDCs (4 μM) for 1 h, washed to remove extracellular compound, then extracted with 75% (v/v) MeCN in mQH2O (containing 1.75% (v/v) TFA), to recover soluble peptide or PDC from precipitated cell proteins. The relative amount of internalized peptide or PDC was determined by integrating area under the curve (AUC) for the [M + 6H]^6+ m/z peak (for the intact mass) using time of flight–mass spectrometry (see Figure S2). […] Data is expressed as mean ± SD from a single experiment with three technical replicates for each treatment and control and was analyzed with ANOVA (Tukey multiple comparisons; **p < 0.01, *p < 0.05). (C) Detection of intracellular CPT following 6 h treatment of HT144 cells with CPT and PDCs 12 and 14. […] Data is expressed as mean ± SD from a single experiment with three technical replicates for each treatment and was analyzed with ANOVA (Fisher multiple paired comparisons; **p < 0.01, *p < 0.05). TEXT PRINTED IN THE PICTURE: (A) PDIP: % recovered (soluble fractions): 94 | (A) 12: % recovered (soluble fractions): 58 | (A) 14: % recovered (soluble fractions): 33 | (A) 15: % recovered (soluble fractions): 40 | (A) c[A] PDIP: % recovered (soluble fractions): 34 | (A) CPT: % recovered (soluble fractions): 92 […]
For the first assay, the PDCs (12–15), scaffold peptides and CPT (4 μM) were added to the apical side of PAMPA monolayers and incubated for 4 h. […] PDIP, CPT, and PDCs 12 and 14 had high permeability (Papp ≥ 2 × 10^−6 cm/s), highlighting that these PDCs maintain membrane permeability with the CPT cargo attached. […] Reliable permeability data were not obtained for PDC 13 because of poor recovery of the PDC from soluble fractions, and degradation during the 4 h PAMPA experiment. […] Instability of the carbonate linkage within CPT conjugates containing a dipeptide linker has been previously reported (Walker et al. [2002]), highlighting the potential incompatibility of this drug–linker combination for CPT PDCs. Considering the observed degradation of 13 in the cell‐free assay, it is also possible that extracellular degradation occurred during the cytotoxicity assays.
Parallel artificial membrane permeability assay (PAMPA)
PAMPA was performed according to the manufacturer instructions for the BD Gentest pre-coated PAMPA plate system (BD Biosciences), as previously described.16 Briefly, peptides and PDCs (4 μM in PBS) were added to the apical side of PAMPA wells and incubated for 4 h at 37 °C, 5% CO2 with 95% humidity. Soluble fractions were recovered from the apical and basolateral sides, and compound concentration was quantified using a Shimadzu LCMS-2020 instrument with a Phenomenex 5 µm C18 / 300 Å / 150 x 2 mm LC column. Data was collected from three technical replicates for each compound. The % recovery was determined from (combined from apical and basolateral fractions) relative to the starting concentration:
Recovery rate : R (%) = (C஺ ×V஺ +C஻ ×V஻ )× 100 where CA and CB are the apical and basolateral concentrations (µM), VA and VB are the apical and basolateral volumes (mL), and C0 is the initial concentration (µM).
The apparent permeability coefficient (Papp) was calculated using the following equations17 and where A is the membrane surface area (cm2): […]

Row | Compound | HC10 (minimal hemolytic concentration) RBC (human RBCs; human RBCs 0.25% v/v) | concentration that completely lysed the RBCs (human RBCs; human RBCs) | RBC lysis (human RBCs; concentration range 16 nM—2 μM) | CC50 at 72 h [1] | cytotoxic activity against HT144 at 24 h (HT144 (melanoma) cells; 24 h incubation, 16 nM to 2 μM (CPT, PDCs), up to 32 μM (peptides)) | CC50 (HT144 (melanoma) cells; Homo sapiens, HT-144, 72 h, read-out: CC50 (half maximal cytotoxicity concentration) HT144) | % recovered (soluble fractions) [2] | Papp at 4 h, 4 μM [2] | degradation during PAMPA experiment [2]
1 | CC[C@H](C)[C@H](NC(=O)CN)C(=O)NCC(=O)N[C@@H](C)C(=O)N[C@H](C(=O)N[C@@H](CC(C)C)C(=O)N[C@@H](CCCCN)C(=O)N[C@H](C(=O)N[C@@H](CC(C)C)C(=O)N[C@H](C(=O)N[C@H](C(=O)NCC(=O)N[C@@H](CC(C)C)C(=O)N1CCC[C@H]1C(=O)N[C@@H](C)C(=O)N[C@@H](CC(C)C)C(=O)N[C@H](C(=O)N[C@@H](CO)C(=O)N[C@@H](Cc1c[nH]c2ccccc12)C(=O)N[C@H](C(=O)N[C@@H](CCCCN)C(=O)N[C@@H](CCCNC(=N)N)C(=O)N[C@@H](CCCCN)C(=O)N[C@@H](CCCNC(=N)N)C(=O)N[C@@H](CCC(N)=O)C(=O)N[C@@H](CCC(N)=O)C(N)=O)[C@@H](C)CC)[C@@H](C)CC)[C@@H](C)O)[C@@H](C)O)C(C)C)C(C)C [Melittin] | 1.8 µM | 8 µM | – | – | – | – | – | – | –
2 | CC[C@@]1(O)C(=O)OCc2c1cc1n(c2=O)Cc2cc3ccccc3nc2-1 [CPT, Camptothecin] | – | – | did not lyse RBCs | 570 nM | absence of activity | 380 nM | 92% and > 90% | ≥ 2 ×10⁻⁶ cm/s | –
3 | CC[C@H](C)[C@@H]1NC(=O)[C@H](CCCCN)NC(=O)[C@H](CCCCN)NC(=O)[C@H](Cc2ccc(O)cc2)NC(=O)[C@H](CC(C)C)NC(=O)[C@@H]2CCCN2C(=O)CNC(=O)CNC(=O)[C@@H](NC(=O)CN)CSSC[C@@H](C(=O)N[C@@H](CCC(=O)O)C(=O)N[C@@H](CO)C(N)=O)NC(=O)[C@H](CC(C)C)NC(=O)[C@H](CCCCN)NC(=O)[C@H](CCCCN)NC(=O)[C@H]([C@@H](C)CC)NC(=O)[C@H]([C@@H](C)CC)NC(=O)[C@H](CCCCN)NC(=O)[C@H](CCCCN)NC(=O)[C@H](Cc2ccc(O)cc2)NC(=O)[C@H](CC(C)C)NC(=O)[C@@H]2CCCN2C(=O)[C@H](C)NC(=O)CNC(=O)CNC(=O)[C@H](Cn2cc(COCCC(=O)N[C@H](C(=O)N[C@@H](CCCNC(N)=O)C(=O)Nc3ccc(COC(=O)O[C@]4(CC)C(=O)OCc5c4cc4n(c5=O)Cc5cc6ccccc6nc5-4)cc3)C(C)C)nn2)NC(=O)CNC(=O)CNC(=O)[C@H](CO)NC(=O)[C@H](CCC(=O)O)NC(=O)[C@H](CC(C)C)NC(=O)[C@H](CC(C)C)NC(=O)[C@H](CCCCN)NC(=O)[C@H](CCCCN)NC(=O)[C@H]([C@@H](C)CC)NC1=O [PDC 13] | – | – | – | – | – | – | poor recovery | – | degradation
4 | CC[C@H](C)[C@@H]1NC(=O)[C@H](CCCCN)NC(=O)[C@H](CCCCN)NC(=O)[C@H](Cc2ccc(O)cc2)NC(=O)[C@H](CC(C)C)NC(=O)[C@@H]2CCCN2C(=O)[C@H](C)NC(=O)CNC(=O)CNC(=O)[C@H](CSSCCOC(=O)O[C@]2(CC)C(=O)OCc3c2cc2n(c3=O)Cc3cc4ccccc4nc3-2)NC(=O)CNC(=O)CNC(=O)[C@H](CO)NC(=O)[C@H](CCC(=O)O)NC(=O)[C@H](CC(C)C)NC(=O)[C@H](CC(C)C)NC(=O)[C@H](CCCCN)NC(=O)[C@H](CCCCN)NC(=O)[C@H]([C@@H](C)CC)NC(=O)[C@H]([C@@H](C)CC)NC(=O)[C@H](CCCCN)NC(=O)[C@H](CCCCN)NC(=O)[C@H](Cc2ccc(O)cc2)NC(=O)[C@H](CC(C)C)NC(=O)[C@@H]2CCCN2C(=O)[C@H](C)NC(=O)CNC(=O)CNC(=O)[C@H](CO)NC(=O)CNC(=O)CNC(=O)[C@H](CO)NC(=O)[C@H](CCC(=O)O)NC(=O)[C@H](CC(C)C)NC(=O)[C@H](CC(C)C)NC(=O)[C@H](CCCCN)NC(=O)[C@H](CCCCN)NC(=O)[C@H]([C@@H](C)CC)NC1=O [PDC 15] (cyclo(APLYKKIIKKLLESGGC(S(CH2)2OCO2(CPT-20-yl))GGAPLYKKIIKKLLESGGSGG)) | – | – | – | – | – | – | 40% | ~0.9 ×10⁻⁶ cm/s | Negligible degradation
